Test results reported in US6555545B2, “Adenosine A2A receptor antagonists for treating and preventing hepatic fibrosis, cirrhosis and fatty liver” (New York University, priority 2000, dated 2003).
Entries after “also recorded” stand apart in the source; their conditions may differ.

Key:
[1] = tested on: HepG2 cells; assay: Adenosine release from HepG2 cells, quantitated by HPLC; details: for effect on adenosine release (in words): pharmacologically relevant concentrations, ethanol up to 80 mg/dl
[2] = tested on: human hepatic stellate cells (LX-1); assay: Collagen production by immortalized human hepatic stellate cells; assay type: cell-based
Protocol: Since A2A receptor selectivity of CGS-21680 decreases with increasing concentration, and recruitment of A2B receptor activity is observed with CGS-21680 concentrations above 100 nM, agonistic effects in A2B receptors by high-dose CGS-21680 is likely to be responsible for the decrease in collagen production. This is consistent with Dubey's observations on cardiac fibroblasts that adenosine A2B receptor activation decreases collagen synthesis, Dubey et al., Hypertension 1998; 31(4):943-8. Alternatively, CGS-21680-induced changes in collagen production may be the result of alterations in the expression of collagenase/metalloproteinases (MMP) or their inhibitors, tissue inhibitors of metalloproteinases, TIMP. Adenosine, acting through one of its receptors, most likely the A2B receptor, has been noted to alter metalloproteinase expression (Boyle et al., Arthritis Rheum 1996:39(6):923-30.

[3] = tested on: rat hepatic stellate cells (rHSC); assay: Collagen production by immortalized rat hepatic stellate cells (14C-proline pulse, phosphorimager); assay type: cell-based; details: for collagen production, % of control: n=4; for effect of antagonist on CGS-21680-mediated increase in collagen production (in words): rHSC, CSC 10 micro-M, preincubation four hours
Protocol: To determine whether an increase in adenosine release would promote collagen production, immortalized rat hepatic stellate cells (rHSC, gift from Dr. S. L. Friedman) were incubated with agonists and antagonists at various adenosine receptors, after which collagen production was quantitated. Rat hepatic stellate cells were treated with […] at various concentrations with or without the addition of 10 micro-M adenosine A2A receptor antagonist CSC following pulsing with ^14C-proline. The collagen was extracted by ethanol precipitation and quantified following phosphorimager exposure.
The cAMP/protein kinase A pathway is known to mediate adenosine A2A receptor signal transduction. The effect of protein kinase A inhibition was studied on CGS-21680-mediated collagen production in rHSC. Rat HSC were treated with 10 micromolar CGS-21680 for four hours at 37° C., 5% CO2, with or without the addition of 10 micromolar KT-5720, a protein kinase A inhibitor, and collagen production was extracted by ethanol precipitation and quantified following phosphoimager exposure.

Structure (SMILES): CN(Cc1cnc2nc(N)nc(N)c2n1)c1ccc(C(=O)N[C@@H](CCC(=O)O)C(=O)O)cc1 [methotrexate]
- increase in adenosine release vs control ([1]; methotrexate 10 nM, three hours): six-fold
- adenosine release ([1]; methotrexate 10 nM, three hours, n=6, p<0.001 vs control 41±39 nM): 242 ± 82 nM
- effect on adenosine release (in words) [1]: increased adenosine release; also recorded: promotes adenosine release

Structure (SMILES): CCNC(=O)[C@H]1O[C@@H](n2cnc3c(N)nc(NCCc4ccc(CCC(=O)O)cc4)nc32)[C@H](O)[C@@H]1O [CGS-21680]
- effect on collagen production (in words) ([2]; CGS-21680 concentrations above 100 nM): collagen production by LX-1 decreases
- effect on collagen production (in words) ([2]; CGS-21680 concentrations up to 100 nM, dose dependent): increased collagen production
- collagen production, % of control ([3]; 10 micromolar CGS-21680 alone, four hours): 339±99 % of control
- increase in collagen production over control ([3]; concentration of 10 mM as printed, n=6, p<0.001): 3223±917%
- EC50 ([3]; cultured rat stellate cell line, dose-dependent, read-out: EC50 for promotion of collagen synthesis and release): ~300 nM
- maximal promotion of collagen synthesis and release ([3]; cultured rat stellate cell line, p<0.004): ≤ 20 fold

Structure (SMILES): CCCCCCOC(=O)[C@]1(O)C[C@@H]2O[C@@]1(C)n1c3ccccc3c3c4c(c5c6ccccc6n2c5c31)C(=O)NC4 [KT-5720]
- collagen production, % of control ([3]; 10 micromolar CGS-21680 plus 10 micromolar KT-5720, four hours): 181±69 % of control
- suppression of the CGS-21680-mediated increase in collagen production ([3]; 10 micromolar KT-5720 with 10 micromolar CGS-21680, four hours, n=4, p<0.013): 47%

Structure (SMILES): CCCn1c(=O)[nH]c(=O)c2[nH]cnc21 [enprofylline]
- effect of antagonist on CGS-21680-mediated increase in collagen production (in words) [3]: little effect; also recorded: minimal inhibitory effects

Structure (SMILES): CCCn1c(=O)c2[nH]c(C3CCCC3)nc2n(CCC)c1=O [DPCPX, 8-cyclopentyldipropylxanthine]
- effect of antagonist on CGS-21680-mediated increase in collagen production (in words) [3]: little effect; also recorded: minimal inhibitory effects

Structure (SMILES): Cn1c(=O)c2c(nc(C=Cc3cccc(Cl)c3)n2C)n(C)c1=O [CSC, 8-(3-chlorostyryl)-caffeine]
- effect of antagonist on CGS-21680-induced collagen production (in words) [2]: blocked by CSC
- effect of antagonist on CGS-21680-mediated increase in collagen production (in words) [3]: almost completely blocks; also recorded: almost completely abrogated

Structure (SMILES): CCO [ethanol]
- increase in adenosine release from control ([1]; ethanol 40 mg/dl, three hours): four-fold
- adenosine release ([1]; ethanol 40 mg/dl, three hours, n=6, p<0.001 vs control 37±35 nM): 206 ± 79 nM
- toxicity to HepG2 cells ([1]; ethanol concentrations greater than 80 mg/dl): toxic to HepG2 cells
- effect on adenosine release (in words) [1]: increased adenosine release; also recorded: promote adenosine release
- effect of ethanol on adenosine release from methotrexate-treated HepG2 cells ([1]; relevant concentrations of methotrexate, data not shown): further increased adenosine release
